Measured values as given in patent US20070213393A1, “COMPOSITIONS AND METHODS FOR TREATING INFLAMMATORY CONDITIONS UTILIZING PROTEIN OR POLYSACCHARIDE CONTAINING ANTI-MICROTUBULE AGENTS” (ANGIOTECH INTERNATIONAL AG, priority 2001, published 2007).
In brackets after ≈: the same amount, converted by molar mass.

Columns and labels:
[1] = Compatibility of co-solvent carrier with hyaluronic acid hydrogel (visually observed turbidity); type: physicochemical; conditions: solvent added in 200 μl aliquots to 2 ml gel of 20 mg/ml hyaluronic acid in water; maximum added 5 ml
Procedure: Co-solvent systems were prepared by the addition of water miscible organic solvents to a hyaluronic acid (HA) gel containing 20 mg/ml hyaluronic acid in water. The organic solvent was added with stirring in aliquots of 200 μl. After the addition of each aliquot, the mixture was allowed to stir for several minutes and observed for signs of turbidity or rapidly changing viscosity. At the first sign of visually observed turbidity, the volume of organic solvent added was noted and the ratio of co-solvent to water calculated. In the event that turbidity was not observed the maximum amount of solvent added was 5 ml to 2 ml of gel.

[2] = system: collagen induced arthritis in an animal model; conditions: cited from earlier work
synoviocytes = conditions: cited from earlier work
physchem = conditions: aqueous with cosolvent or surfactant or cyclodextrin, thermodynamic from solid
Procedure: After determining suitability in this manner, co-solvent systems may be further assessed in terms of biocompatibility. Solubility was determined as follows:
To a 1 ml aliquot of a co-solvent system described by the ratio of organic solvent to water was added precisely to 5 and 10 mg±10% paclitaxel. The mixtures were equilibrated at room temperature for 16 hours and observed for clarity and particulates in the liquid.

AP-1 = conditions: via reduced AP-1 binding to DNA; cited from earlier work
[3] = system: normal chondrocytes and non-proliferating synoviocytes; conditions: cited from earlier work
neutrophil = conditions: cited from earlier work
T-cell = conditions: cited from earlier work

In the case of `C[S+](C)[O-]` [Dimethylsulfoxide], the “Max. amt. added to HA Gel without turbidity” value [1] was greater than 5 ml in 2 ml.

For `CCO` [Ethanol], the “Max. amt. added to HA Gel without turbidity” value [1] was 4 ml in 2 ml.

For `CCOCCOCCO` [Ethoxydiglycol], the “Max. amt. added to HA Gel without turbidity” value [1] was 2 ml in 2 ml.

For `CN1CCCC1=O` [N-methylpyrrolidone], the “Max. amt. added to HA Gel without turbidity” value [1] was greater than 5 ml in 2 ml.

In the case of `CC(=O)O[C@H]1C(=O)[C@@]2(C)[C@H]([C@H](OC(=O)c3ccccc3)[C@]3(O)C[C@H](OC(=O)[C@H](O)[C@@H](NC(=O)c4ccccc4)c4ccccc4)C(C)=C1C3(C)C)[C@]1(OC(C)=O)CO[C@@H]1C[C@@H]2O` [paclitaxel], the collagen induced arthritis [2] is given as “inhibits”, the apoptosis in synoviocytes (synoviocytes) is given as “induces” and the proliferation of synoviocytes (synoviocytes) is given as “prevents”. The solubility at 16 h (physchem; Dimethylsulfoxide:water co-solvent mixture) was less than 5000 µg/mL, the solubility at 16 h (physchem; Ethanol:water co-solvent mixture) was 5000 to 10000 µg/mL (≈ 5.86 to 11.7 mM) and the solubility at 16 h (physchem; Ethoxydiglycol:water co-solvent mixture) was less than 5000 µg/mL. For the same compound, the solubility at 16 h (physchem; N-methylpyrrolidone:water co-solvent mixture) was greater than 10000 µg/mL, the solubility at 16 h (physchem; PEG 200:water co-solvent mixture) was 5000 to 10000 µg/mL (≈ 5.86 to 11.7 mM) and the AP-1 transcription activity (AP-1) was “inhibits”. For the same compound, the “toxicity to non-proliferating cells” value [3] was “non-toxic”, the neutrophil activation (neutrophil) was “inhibits” and the T-cell function (T-cell) was “inhibits”. The “T-cell response to stimuli” value (T-cell) was “decreases”.
